Data as given in patent US11207320B2, “Compositions and methods for cancer expressing PDE3A or SLFN12” (The Broad Institute, Inc., priority 2015, dated 2021).
Where two headings read alike, the source gives them in different places. Blank lines part the entries; values can stand above or below the compound they belong to.

What was measured:
[1] = system: HeLa cells; test: PARP-cleavage immunoblotting; type: cell-based; conditions: 36 hours
Procedure: HeLa cells were treated with indicated concentration of DNMDP and staurosporine for 36 hours. HeLa cells were lysed and processed as described in Linker-affinity purification of molecular target of DNMDP and immunoblotting. Membranes were incubated with an antibody against PARP (1:1000, Cell Signaling #9532) and actin and subsequently imaged as described in Linker-affinity purification of molecular target of DNMDP and immunoblotting.

[2] = biological target: T1, PDE7B (Homo sapiens, UniProt Q9NP56); test: Phosphodiesterase inhibition reactions (Caliper panel); type: biochemical; conditions: 100 nM
T1 construct: Caliper
Procedure: (§1) DNMDP concentration was 100 nM.

[3] = biological target: T2, PDE4B1 (Homo sapiens, UniProt Q07343); test: as above; type: biochemical; conditions: PDE4B1, 100 nM
T2 construct: Caliper
Procedure: as §1

[4] = biological target: T3, PDE1B (Homo sapiens, UniProt Q01064); test: as above; type: biochemical; conditions: 100 nM
T3 construct: Caliper
Procedure: as §1

[5] = biological target: T4, PDE8A1 (Homo sapiens, UniProt O60658); test: as above; type: biochemical; conditions: PDE8A1, 100 nM
T4 construct: Caliper
Procedure: as §1

[6] = system: PDE1A1; test: as above; type: biochemical; conditions: PDE1A1, 100 nM
Procedure: as §1

[7] = biological target: T5, PDE4C1 (Homo sapiens, UniProt Q08493); test: as above; type: biochemical; conditions: PDE4C1, 100 nM
T5 construct: Caliper
Procedure: as §1

[8] = biological target: T6, PDE3B (Homo sapiens, UniProt Q13370); test: as above; type: biochemical; conditions: 100 nM
T6 construct: Caliper
Procedure: as §1

[9] = biological target: T7, PDE10A1 (Homo sapiens, UniProt Q9Y233); test: as above; type: biochemical; conditions: PDE10A1, 100 nM
T7 construct: Caliper
Procedure: as §1

[10] = biological target: T8, PDE7A (Homo sapiens, UniProt Q13946); test: as above; type: biochemical; conditions: 100 nM
T8 construct: Caliper
Procedure: as §1

[11] = biological target: T9, PDE4D7 (Homo sapiens, UniProt Q08499); test: as above; type: biochemical; conditions: PDE4D7, 100 nM
T9 construct: Caliper
Procedure: as §1

[12] = biological target: T10, PDE9A2 (Homo sapiens, UniProt O76083); test: as above; type: biochemical; conditions: PDE9A2, 100 nM
T10 construct: Caliper
Procedure: as §1

[13] = biological target: PDE3A (Homo sapiens, UniProt Q14432); test: as above; type: biochemical; conditions: 100 nM
Procedure: as §1

[14] = biological target: T11, PDE2A (Homo sapiens, UniProt O00408); test: as above; type: biochemical; conditions: 100 nM
T11 construct: Caliper
Procedure: as §1

[15] = biological target: T12, PDE4A1A (Homo sapiens, UniProt P27815); test: as above; type: biochemical; conditions: 100 nM
T12 construct: Caliper
Procedure: as §1

[16] = biological target: T13, PDE5A1 (Homo sapiens, UniProt O76074); test: as above; type: biochemical; conditions: PDE5A1, 100 nM
T13 construct: Caliper
Procedure: as §1

[17] = biological target: T14, PDE4D3 (Homo sapiens, UniProt Q08499); test: as above; type: biochemical; conditions: PDE4D3, 100 nM
T14 construct: Caliper
Procedure: as §1

[18] = biological target: T15, PDE1C (Homo sapiens, UniProt Q14123); test: as above; type: biochemical; conditions: 100 nM
T15 construct: Caliper
Procedure: as §1

[19] = biological target: T16, PDE11A (Homo sapiens, UniProt Q9HCR9); test: as above; type: biochemical; conditions: 100 nM
T16 construct: Caliper
Procedure: as §1

[20] = biological target: T17, PDE10A2 (Homo sapiens, UniProt Q9Y233); test: as above; type: biochemical; conditions: PDE10A2, 100 nM
T17 construct: Caliper
Procedure: as §1

[21] = biological target: 234 kinases; test: Screening of 234 kinases; type: biochemical; conditions: 10 μM
[22] = system: HeLa cells; test: Caspase activity in HeLa cells (Caspase-Glo); type: cell-based; conditions: DNMDP treatment 48 hours
Procedure: 1000 HeLa cells were plated in 384-well plate in 40 μl of corresponding growth media supplemented with 10% Fetal Bovine Serum. 24 hours after plating, indicated compounds were added at indicated concentrations and incubated for 48 hours. Caspase-Glo from Promega was added according to the manufacturers recommendations and luminescence was determined as described in Compound library screening in NCI-H1734 and A549 cell lines.

[23] = system: PDE3; conditions: Ruppert et al., Life Sci. 31, 2037-2043, 1982; cited from earlier work
[24] = replicate #1, read-out: % inh. #1
[25] = replicate #2, read-out: % inh. #2

Sequence of PDE3A (Q14432 whole entry): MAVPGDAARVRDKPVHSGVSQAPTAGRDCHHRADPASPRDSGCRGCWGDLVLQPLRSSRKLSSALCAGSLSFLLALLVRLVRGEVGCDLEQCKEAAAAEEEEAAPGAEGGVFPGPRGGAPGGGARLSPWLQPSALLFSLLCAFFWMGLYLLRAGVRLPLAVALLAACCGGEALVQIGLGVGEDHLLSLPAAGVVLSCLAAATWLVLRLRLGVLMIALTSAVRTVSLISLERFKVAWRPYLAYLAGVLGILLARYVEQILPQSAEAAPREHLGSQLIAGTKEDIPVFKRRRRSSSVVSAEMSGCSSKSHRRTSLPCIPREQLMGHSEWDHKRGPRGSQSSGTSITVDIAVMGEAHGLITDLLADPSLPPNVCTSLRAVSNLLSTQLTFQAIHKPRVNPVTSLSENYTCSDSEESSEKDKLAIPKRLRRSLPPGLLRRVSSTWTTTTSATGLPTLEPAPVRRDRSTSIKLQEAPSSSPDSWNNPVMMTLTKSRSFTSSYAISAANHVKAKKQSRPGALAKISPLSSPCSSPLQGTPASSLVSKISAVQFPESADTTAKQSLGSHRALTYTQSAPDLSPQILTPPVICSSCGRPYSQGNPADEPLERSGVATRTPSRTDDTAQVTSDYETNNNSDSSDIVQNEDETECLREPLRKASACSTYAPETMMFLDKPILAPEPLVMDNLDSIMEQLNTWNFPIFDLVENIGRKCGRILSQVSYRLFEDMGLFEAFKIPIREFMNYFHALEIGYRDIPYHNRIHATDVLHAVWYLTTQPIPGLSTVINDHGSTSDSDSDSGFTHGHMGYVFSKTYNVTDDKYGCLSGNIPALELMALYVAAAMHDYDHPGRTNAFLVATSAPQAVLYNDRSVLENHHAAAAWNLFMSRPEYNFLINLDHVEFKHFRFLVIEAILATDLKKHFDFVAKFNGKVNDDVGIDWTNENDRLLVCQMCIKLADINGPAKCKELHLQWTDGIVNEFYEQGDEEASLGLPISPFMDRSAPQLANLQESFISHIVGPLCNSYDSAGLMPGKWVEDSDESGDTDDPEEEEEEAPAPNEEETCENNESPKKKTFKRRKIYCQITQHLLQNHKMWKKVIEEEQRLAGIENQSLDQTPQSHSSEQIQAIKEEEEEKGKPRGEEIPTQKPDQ
T7 sequence (Q9Y233 1-779 isoform Q9Y233-1, species assumed): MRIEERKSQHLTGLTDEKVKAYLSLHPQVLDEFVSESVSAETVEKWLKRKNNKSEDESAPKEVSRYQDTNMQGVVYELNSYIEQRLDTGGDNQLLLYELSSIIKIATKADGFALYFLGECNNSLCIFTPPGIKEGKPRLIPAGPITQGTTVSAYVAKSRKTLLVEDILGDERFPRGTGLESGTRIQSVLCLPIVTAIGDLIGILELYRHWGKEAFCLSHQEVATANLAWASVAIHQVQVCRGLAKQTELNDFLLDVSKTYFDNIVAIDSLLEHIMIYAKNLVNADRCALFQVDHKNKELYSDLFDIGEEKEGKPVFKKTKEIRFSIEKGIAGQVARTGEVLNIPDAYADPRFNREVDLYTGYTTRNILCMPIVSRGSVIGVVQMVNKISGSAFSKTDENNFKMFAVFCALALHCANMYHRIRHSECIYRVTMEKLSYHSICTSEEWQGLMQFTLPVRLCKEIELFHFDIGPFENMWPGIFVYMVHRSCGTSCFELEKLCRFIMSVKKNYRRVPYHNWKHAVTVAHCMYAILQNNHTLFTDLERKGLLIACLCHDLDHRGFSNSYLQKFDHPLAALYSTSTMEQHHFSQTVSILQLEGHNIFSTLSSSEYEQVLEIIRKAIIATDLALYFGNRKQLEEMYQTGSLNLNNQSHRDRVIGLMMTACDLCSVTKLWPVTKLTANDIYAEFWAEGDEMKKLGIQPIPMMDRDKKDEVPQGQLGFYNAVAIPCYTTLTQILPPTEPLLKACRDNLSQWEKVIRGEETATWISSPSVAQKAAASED
T2 sequence (Q07343 whole entry, species assumed): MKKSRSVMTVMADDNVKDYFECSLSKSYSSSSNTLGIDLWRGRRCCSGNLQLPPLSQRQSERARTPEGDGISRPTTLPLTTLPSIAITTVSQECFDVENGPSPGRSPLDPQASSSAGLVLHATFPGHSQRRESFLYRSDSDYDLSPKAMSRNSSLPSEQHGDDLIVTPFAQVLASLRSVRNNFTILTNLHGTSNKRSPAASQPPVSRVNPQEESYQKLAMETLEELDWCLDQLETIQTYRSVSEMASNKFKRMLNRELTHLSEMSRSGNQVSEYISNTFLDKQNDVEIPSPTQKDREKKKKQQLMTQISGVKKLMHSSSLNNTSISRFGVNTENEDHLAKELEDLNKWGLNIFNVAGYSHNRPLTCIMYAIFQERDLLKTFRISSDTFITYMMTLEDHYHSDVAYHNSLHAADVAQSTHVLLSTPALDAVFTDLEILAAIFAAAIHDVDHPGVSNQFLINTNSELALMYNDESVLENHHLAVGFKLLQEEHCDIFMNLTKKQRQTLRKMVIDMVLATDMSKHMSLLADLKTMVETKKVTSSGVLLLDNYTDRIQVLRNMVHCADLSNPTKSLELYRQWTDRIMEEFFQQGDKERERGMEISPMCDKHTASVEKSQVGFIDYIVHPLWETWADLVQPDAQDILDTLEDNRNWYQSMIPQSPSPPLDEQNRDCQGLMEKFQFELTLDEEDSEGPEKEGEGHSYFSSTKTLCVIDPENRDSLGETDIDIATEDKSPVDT
T1 sequence (Q9NP56 whole entry, species assumed): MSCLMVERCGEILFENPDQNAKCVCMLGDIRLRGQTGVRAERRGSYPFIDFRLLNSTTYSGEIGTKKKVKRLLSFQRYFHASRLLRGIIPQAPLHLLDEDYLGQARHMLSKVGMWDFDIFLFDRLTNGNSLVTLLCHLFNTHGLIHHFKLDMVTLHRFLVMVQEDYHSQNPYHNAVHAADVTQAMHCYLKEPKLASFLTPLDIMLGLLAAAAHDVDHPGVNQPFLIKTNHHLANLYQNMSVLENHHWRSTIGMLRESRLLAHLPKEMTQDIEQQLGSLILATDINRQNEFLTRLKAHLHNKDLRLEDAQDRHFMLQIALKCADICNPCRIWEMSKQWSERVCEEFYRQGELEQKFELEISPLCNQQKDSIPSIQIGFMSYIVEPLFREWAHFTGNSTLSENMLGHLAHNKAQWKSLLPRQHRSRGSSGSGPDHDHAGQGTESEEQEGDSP
T3 sequence (Q01064 whole entry, species assumed): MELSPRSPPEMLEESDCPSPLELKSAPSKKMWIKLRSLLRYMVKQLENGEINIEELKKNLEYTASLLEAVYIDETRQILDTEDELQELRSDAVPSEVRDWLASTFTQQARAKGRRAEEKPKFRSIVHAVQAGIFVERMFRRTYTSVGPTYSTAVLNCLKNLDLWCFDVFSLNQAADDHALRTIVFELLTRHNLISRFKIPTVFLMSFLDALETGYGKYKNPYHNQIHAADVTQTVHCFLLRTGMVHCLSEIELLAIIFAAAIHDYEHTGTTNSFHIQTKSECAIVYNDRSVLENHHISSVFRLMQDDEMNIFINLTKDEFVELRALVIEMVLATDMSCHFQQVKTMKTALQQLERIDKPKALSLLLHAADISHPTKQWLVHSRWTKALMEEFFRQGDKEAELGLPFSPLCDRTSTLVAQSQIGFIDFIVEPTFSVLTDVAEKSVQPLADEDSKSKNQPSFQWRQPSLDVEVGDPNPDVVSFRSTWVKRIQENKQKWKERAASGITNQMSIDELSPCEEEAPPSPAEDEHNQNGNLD
T14 sequence (Q08499 1-673 isoform Q08499-2): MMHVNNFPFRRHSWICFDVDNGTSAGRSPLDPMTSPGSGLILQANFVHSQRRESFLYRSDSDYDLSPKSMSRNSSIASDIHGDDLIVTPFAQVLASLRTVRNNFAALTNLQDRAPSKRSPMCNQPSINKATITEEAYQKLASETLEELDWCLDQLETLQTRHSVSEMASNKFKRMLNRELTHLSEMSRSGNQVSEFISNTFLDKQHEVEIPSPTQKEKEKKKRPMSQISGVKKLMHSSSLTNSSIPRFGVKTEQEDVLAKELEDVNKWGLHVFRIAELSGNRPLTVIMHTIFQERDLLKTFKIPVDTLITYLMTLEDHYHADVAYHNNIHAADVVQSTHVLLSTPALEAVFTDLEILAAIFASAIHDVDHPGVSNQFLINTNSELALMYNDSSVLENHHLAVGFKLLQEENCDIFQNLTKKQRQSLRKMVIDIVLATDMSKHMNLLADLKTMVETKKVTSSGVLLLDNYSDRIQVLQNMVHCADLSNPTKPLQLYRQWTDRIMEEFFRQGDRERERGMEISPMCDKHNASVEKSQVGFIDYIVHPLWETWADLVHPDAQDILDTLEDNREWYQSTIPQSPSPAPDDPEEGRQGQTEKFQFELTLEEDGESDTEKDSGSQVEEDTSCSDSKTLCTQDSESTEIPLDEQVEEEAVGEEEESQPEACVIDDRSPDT
T5 sequence (Q08493 whole entry, species assumed): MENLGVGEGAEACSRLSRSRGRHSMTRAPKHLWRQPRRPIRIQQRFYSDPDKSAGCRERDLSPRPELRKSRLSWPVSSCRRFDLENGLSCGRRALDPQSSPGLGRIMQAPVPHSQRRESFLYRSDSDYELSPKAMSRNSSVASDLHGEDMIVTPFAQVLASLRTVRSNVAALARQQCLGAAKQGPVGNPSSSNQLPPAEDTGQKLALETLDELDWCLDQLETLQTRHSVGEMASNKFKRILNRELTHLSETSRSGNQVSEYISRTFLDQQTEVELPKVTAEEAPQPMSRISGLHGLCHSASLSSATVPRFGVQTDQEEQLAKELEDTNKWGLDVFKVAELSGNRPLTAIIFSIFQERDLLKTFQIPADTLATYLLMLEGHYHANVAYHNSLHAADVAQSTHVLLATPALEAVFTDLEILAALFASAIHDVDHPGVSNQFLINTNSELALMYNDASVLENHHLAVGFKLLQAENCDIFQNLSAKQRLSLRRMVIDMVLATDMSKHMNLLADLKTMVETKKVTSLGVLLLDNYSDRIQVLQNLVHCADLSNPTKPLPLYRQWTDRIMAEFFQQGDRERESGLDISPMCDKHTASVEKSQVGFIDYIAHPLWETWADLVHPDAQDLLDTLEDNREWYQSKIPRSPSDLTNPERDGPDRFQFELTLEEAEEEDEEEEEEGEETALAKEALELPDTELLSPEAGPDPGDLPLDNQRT

inhibition at 0.1 µM ([2]; read-out: % inhibition): 8%
inhibition at 0.1 µM [2, 24]: 5%
inhibition at 0.1 µM [2, 25]: 11%
inhibition at 0.1 µM [3, 24]: 21%
inhibition at 0.1 µM [3, 25]: 20%
inhibition at 0.1 µM ([3]; read-out: % inhibition): 21%
inhibition at 0.1 µM ([4]; read-out: % inhibition): -2%
inhibition at 0.1 µM [4, 24]: -5%
inhibition at 0.1 µM [4, 25]: 0%
inhibition at 0.1 µM [5, 24]: 10%
inhibition at 0.1 µM [5, 25]: 12%
inhibition at 0.1 µM ([5]; read-out: % inhibition): 11%
% inhibition [6]: 5%
% inh. #1 ([6]; replicate #1): 3%
% inh. #2 ([6]; replicate #2): 7%
inhibition at 0.1 µM [7, 24]: 10%
inhibition at 0.1 µM [7, 25]: 14%
inhibition at 0.1 µM ([7]; read-out: % inhibition): 12%
inhibition at 0.1 µM ([8]; read-out: % inhibition): 97%
inhibition at 0.1 µM [8, 24]: 98%
inhibition at 0.1 µM [8, 25]: 97%
inhibition at 0.1 µM [9, 24]: 61%
inhibition at 0.1 µM [9, 25]: 65%
inhibition at 0.1 µM ([9]; read-out: % inhibition): 63%
inhibition at 0.1 µM ([10]; read-out: % inhibition): 22%
inhibition at 0.1 µM [10, 24]: 24%
inhibition at 0.1 µM [10, 25]: 20%
inhibition at 0.1 µM [11, 24]: 19%
inhibition at 0.1 µM [11, 25]: 20%
inhibition at 0.1 µM ([11]; read-out: % inhibition): 20%
inhibition at 0.1 µM [12, 24]: 0%
inhibition at 0.1 µM [12, 25]: 5%
inhibition at 0.1 µM ([12]; read-out: % inhibition): 2%
inhibition at 0.1 µM ([13]; read-out: % inhibition): 95%
inhibition at 0.1 µM [13, 24]: 95%
inhibition at 0.1 µM [13, 25]: 95%
inhibition at 0.1 µM ([14]; read-out: % inhibition): 8%
inhibition at 0.1 µM [14, 24]: 6%
inhibition at 0.1 µM [14, 25]: 10%
inhibition at 0.1 µM ([15]; read-out: % inhibition): 16%
inhibition at 0.1 µM [15, 24]: 14%
inhibition at 0.1 µM [15, 25]: 18%
inhibition at 0.1 µM [16, 24]: 16%
inhibition at 0.1 µM [16, 25]: 16%
inhibition at 0.1 µM ([16]; read-out: % inhibition): 16%
inhibition at 0.1 µM [17, 24]: 14%
inhibition at 0.1 µM [17, 25]: 16%
inhibition at 0.1 µM ([17]; read-out: % inhibition): 15%
inhibition at 0.1 µM ([18]; read-out: % inhibition): 5%
inhibition at 0.1 µM [18, 24]: 2%
inhibition at 0.1 µM [18, 25]: 9%
inhibition at 0.1 µM ([19]; read-out: % inhibition): 16%
inhibition at 0.1 µM [19, 24]: 14%
inhibition at 0.1 µM [19, 25]: 18%
inhibition at 0.1 µM [20, 24]: 67%
inhibition at 0.1 µM [20, 25]: 70%
inhibition at 0.1 µM ([20]; read-out: % inhibition): 68%
kinase inhibition [21]: no kinase inhibition
Compound: CCN(CC)c1ccc(C2=NNC(=O)CC2C)cc1[N+](=O)[O-] (stereo not shown) [DNMDP, 6-(4-(diethylamino)-3-nitrophenyl)-5-methyl-4,5-dihydropyridazin-3(2H)-one]
PARP cleavage [1]: detected
Caspase activity (caspase-sensitive luciferase assay) [22]: detected

Compound: COc1cc2c(cc1OC)-c1c/c(=N\c3c(C)cc(C)cc3C)n(C)c(=O)n1CC2 [trequinsin, 9,10-dimethoxy-3-methyl-2-(2,4,6-trimethylphenyl)imino-6,7-dihydropyrimido[6,1-a]isoquinolin-4-one]
IC50 [23]: 250 pM
